# Tests used:
# Format in all cases: in vivo, mouse
# [1] = Body weight monitoring of obese mice
# Experimental: Male C57BL/6J background and ob/ob mice were obtained from CLEA Japan Inc. and Japan SLC, respectively (3). The reason why male mice were selected is that it has been reported that male mice are susceptible to HFD, such as weight gain, metabolic changes, and disorder of learning and hippocampal synaptic plasticity. These animals were housed 3 to 4 per cage in a standard 12 hour dark-light cycle room at 25° C. in an environment with freely available food and water. All animal experiments were performed in accordance with the guidelines of the Animal Experiment Ethics Committee of the University of the Ryukyus. Time series changes in average food intake and average body weight were monitored in each condition.
# HFD mice were orally administered with HydroGel (Clear HO, Portland, ME 04101, USA) at a dose of 5 mg/kg body weight (HFD treated group with PER). For ob/ob mice, CE-2 feed (CLEA Japan, Inc., Tokyo) was used. HFD mice and ob/ob mice were orally administered one per cage with PER at a dose of 5 mg/kg body weight (HFD mice and ob/ob mice PER-administered group), and body weight and HydroGel intake were monitored twice a week for both groups to adjust the dose of PER to 5 mg/kg body weight.
# Post-weaning (6 weeks) food intake and body weight of mice maintained on control diet (CD), high-fat diet (HFD), or HFD containing PER (Fycompa (trademark), Eisai, Japan) (5 mg/kg/day) was monitored up to 18 w (FIGS. 2, E and F). […] To determine the effect of HFD on cognitive behaviors, the open field test (FIG. 9, AC), elevated plus maze test (FIG. 9, DE), the contextual fear conditioning test (FIG. 9, F), the novel object recognition test (FIG. 2G), and a five-trial social interaction test (FIG. 2H) were performed. […]
# Mice were then split into an HFD-fed group (n=5) and a PER-containing HFD-fed group (n=5) under the condition of the same feeding amount (refer to lower Panel of FIG. 25) and their body weights monitored.
# NL(−/−) mice = experiment: Bicculine-induced epileptiform reactions in NL(−/−) mice; settings: perampanel administration
# Source text: Epilepsy occurs more frequently in AD patients than in the control population (Pascal E 2012), and the incidence of epilepsy increases to 7 to 21% (Amatniek et al., 2006; Hauser et al., 1986; Mendez and Lim, 2003) in sporadic AD patients and 30% in early-onset familial AD (FAD) (Palop and Mucke, 2009; Larner and Doran, 2006). Early latent hippocampal hyperexcitability was detected in AD patients (Lam A D et al., Nat Med 2017). […] In particular, in NL-G-F(−/−) mice (15 to 17 weeks old), significant enhancement of epileptiform reactions in the CA1 and CA2 regions was confirmed by Bicculine (BIC) (refer to FIG. 32). […] In an animal model of AD in which amyloid β is accumulated, it has been reported that an epileptiform reaction is enhanced (Busche, 2008; 2012). Also in this experiment, epileptic induction by bicrine was enhanced in both NL(−/−) mice and NL-G-F(−/−) (15 to 17 weeks old (W)) as compared with control mice.
# NL-G-F mice = experiment: Novel object recognition test in Alzheimer's dementia model mice; settings: NL-GF mice (n=5), perampanel 5 mg/kg body weight/day in CD diet from 8 to 13 weeks of age
# Experimental: Mice of CD, HFD, and HFD with PER treatment were handled daily for 5 minutes for 5 days prior to the start of the novel object recognition test. PER means the perampanel, which is an AMPA receptor antagonist. The mice were habituated to a 35 cm square, 25 cm high box for 10 minutes on the first day, and were given 2 identical objects (familiar objects) for 10 minutes on the second day. On the third day, one of the familiar objects was replaced with a novel object of different shape and color (FIG. 2F). […] The search time for each object was measured by offline analysis (47).
# NL-GF mice begin to accumulate in the brain of Aβ from 8 weeks of age (Nat. Neurosci. 2014 17, 661-4). In this example, the AD model mouse (n=5) was fed a CD diet containing a perampanel at a dose of 5 mg/kg body weight/day from 8 to 13 weeks of age, and the mouse was subjected to a novel object recognition test. In the negative control (n=5), a normal CD diet without perampanel was taken.
# NL-G-F(−/−) mice, a dementia model, were administered with memantine (mema), exercise, memantine and exercise, memantine and perampanel, and perampanel alone (5 mg/kg or 10 mg/kg), and subjected to behavioral experiments. As the behavior test, a novel object recognition test and a hippocampus function-dependent fear conditioning test were performed. […]
# NL-G-F(−/−) mice = experiment: Hippocampus function-dependent fear conditioning test in NL-G-F(−/−) mice; settings: perampanel alone 5 mg/kg or 10 mg/kg
# Experimental: Contextual fear conditioning was applied with slight modifications to published protocols (50). Mice were transferred to the animal experimental room and allowed to acclimatize for at least 30 minutes prior to contextual fear conditioning training. Next, the mice were placed in a foot shock system model MK-450 MSQ (Muromachi Kikai Co., Ltd., Japan), searching was performed for 2 minutes, and then 3 electric foot shocks (0.8 mA, 2 sec, 2 min interval) were performed. After mice were left in the apparatus for an additional 1 minute, the animals were removed.
# NL-G-F(−/−) mice, a dementia model, were administered with memantine (mema), exercise, memantine and exercise, memantine and perampanel, and perampanel alone (5 mg/kg or 10 mg/kg), and subjected to behavioral experiments. As the behavior test, a novel object recognition test and a hippocampus function-dependent fear conditioning test were performed. Memantine is an antagonist of the NMDA receptor, but has distinct properties from other NMDA receptor antagonists (refer to Hokama Y., et al., Neuro Oncology, 2022, noac162). That is, memantine is a drug that works only when glutamic acid is excessively present in the brain.
structure (smiles),measurement,setting,value
"N#Cc1ccccc1-c1cc(-c2ccccn2)cn(-c2ccccc2)c1=O [PER, 3-(2-cyanophenyl)-5-(2-pyridyl)-1-phenyl-1,2-dihydropyridine-2-one]",body weight,"[1]; HFD containing PER 5 mg/kg/day from 6 weeks to 18 w, started from 16 w compared to HFD",significant inhibition
same,body weight under the same feeding amount,[1]; PER-containing HFD-fed group (n=5) vs HFD-fed group (n=5),significant body weight loss
same,appearance and body weight,"[1]; ob/ob mice, perampanel-containing diet 5 mg/kg body weight from 8 to 12 weeks of age",overweight was prevented
same,epileptiform reactions induced by bicculine,NL(−/−) mice,almost completely abolished
same,novel object recognition,NL-G-F mice,significantly distinguish
same,cognitive function in hippocampus function-dependent fear conditioning test,NL-G-F(−/−) mice,remarkable improvement in cognitive function
